PubChem BioAssay (NCI)
Values joined by “and” are separate entries in the source; they are usually repeats but may differ in a detail not shown here. Identical values can stand only once.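 Exposure lasted 48 hours, with cells grown in 96-well plates and compounds tested at five concentrations. GI50 marks 50% less growth. Definition used: TGI = concentration required for complete inhibition of growth.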 Where a SMILES comes first, the peptide text is derived from it. [ ]: non-standard residue; d: D form. Ac5c = NC1(C(=O)O)CCCC1

Experiments:
Assay in all cases: inhibition of tumour cell growth, NCI panel, 48 h
[1] = tested on: HCT-15 colon
[2] = tested on: UO-31 renal
[3] = tested on: MOLT-4 leukemia
[4] = tested on: SF-295 CNS
[5] = tested on: A549 NSCLC
[6] = tested on: SNB-19 CNS
[7] = tested on: MALME-3M melanoma
[8] = tested on: SK-OV-3 ovarian
[9] = tested on: OVCAR-5 ovarian
[10] = tested on: HCC-2998 colon

SMILES	TGI [1]	TGI [2] [µM]	TGI [3]	TGI [4] [µM]	TGI [5]	TGI [6] [µM]	TGI [7]	TGI [8]	TGI [9] [µM]	TGI [10] [µM]	GI50 [1]	GI50 [2] [µM]	GI50 [5]	GI50 [4] [µM]	GI50 [10] [µM]	GI50 [7] [µM]	GI50 [8] [µM]	GI50 [9] [µM]	GI50 [3] [µM]	GI50 [6] [µM]
NC1(C(=O)NC2(C(=O)O)CCCC2)CCCC1 (H-[Ac5c]-[Ac5c]-OH)	> 100 µM	> 100	> 100 µM	> 100	> 100 µM	> 100	> 100 µM	> 100 µM	> 100	–	–	–	–	–	–	–	–	–	–	–
CC/C(C)=C1\CCC(CN2CCOCC2)C1=O (stereo not given)	26.5 µM	36.6	> 100 µM	> 100	41.6 µM	> 100	33 µM	–	31.3	39.4	–	–	–	–	–	–	–	–	–	–
CC1C[C@@]2(c3ccccc3)C(=O)CCC[C@H]2N1 (stereo not given in full)	–	> 100	> 100 µM	> 100	> 100 µM	> 100	> 100 µM	> 100 µM	> 100	–	–	–	–	–	–	–	–	–	–	–
O=C(/C=C/c1ccc([N+](=O)[O-])o1)N1CCN(Cc2ccccc2)CC1	15.9 µM	31.3	38.7 µM	29.2	35.2 µM	30.5	–	> 100 µM	31.1	29.3	–	–	–	–	–	–	–	–	–	–
Cc1c[nH]c2c(O)cc3c(c12)[C@H](CCl)CN3C(=O)c1cc2cc(NC(=O)Nc3ccc4[nH]c(C(=O)N5C[C@@H](CCl)c6c5cc(O)c5[nH]cc(C)c65)cc4c3)ccc2[nH]1	> 100 µM and 0.00213 µg/mL	–	–	–	75.5 µM and 0.00228 µg/mL	–	34.2 µM and 0.0012 µg/mL	26.7 nM and > 100 µM and 8.88 µg/mL	–	–	47.9 µM and 0.000888 µg/mL	0.0291	1.31 nM and 0.000888 µg/mL	–	–	–	–	–	–	–
C=CCC(N[C@H](CO)c1ccccc1)c1ccc2ccccc2n1 (stereo not given in full)	> 100 µM	> 100	–	> 100	> 100 µM	–	> 100 µM	> 100 µM	> 100	> 100	> 100 µM	> 100	> 100 µM	> 100	> 100	> 100	> 100	> 100	–	–
O=S(=O)(N/N=C/c1ccc(/C=N/NS(=O)(=O)c2ccccc2)cc1)c1ccccc1	> 100 µM	> 100	60.9 µM	45.6	> 100 µM	–	> 100 µM	> 100 µM	51	> 100	–	–	–	–	–	–	–	–	–	–
CC(=O)CC(=O)Nc1ccc2ccccc2c1	> 100 µM	–	> 100 µM	> 100	> 100 µM	> 100	> 100 µM	> 100 µM	> 100	–	–	–	–	–	–	–	–	–	–	–
NNC(=O)/C(=C/c1ccc(Cl)c(Cl)c1)NC(=O)c1ccccc1	–	> 100	> 100 µM	> 100	> 100 µM	> 100	> 100 µM	–	> 100	> 100	–	–	–	–	–	–	–	–	–	–
O=[N+]([O-])c1cc(Cl)c(Cl)c([N+](=O)[O-])c1Cl	2.84 µM	2.45	5.42 µM	4.4	3.65 µM	22.6	2.18 µM	13.4 µM	4.18	–	1 µM	1.17	1.78 µM	1.99	–	0.473	3.88	2.13	0.436	6.55
O=[N+]([O-])c1cccc(C2N3CCCCC3[C@@H]3c4[nH]c5ccccc5c4CCN23)c1 (stereo not given in full)	23.3 µM	25.6	> 100 µM	31.4	45.5 µM	45.6	18.9 µM	52.1 µM	32.7	–	–	–	–	–	–	–	–	–	–	–
Cn1ccnc1CC(C)(O)c1ccccc1 (stereo not given)	> 100 µM	> 100	–	> 100	> 100 µM	> 100	> 100 µM	> 100 µM	> 100	> 100	–	–	–	–	–	–	–	–	–	–
COc1ccc([N+]2=NC(c3ccc([N+](=O)[O-])cc3)=NN(c3ccccc3)C2)cc1	> 100 µM	> 100	74.4 µM and > 100 µM	> 100	> 100 µM	> 100	> 100 µM	–	> 100	> 100	–	–	–	–	–	–	–	–	–	–
CC(C)CS(=O)(=O)/C(=C(\c1ccc(Br)cc1)S(=O)(=O)CC(C)C)c1ccc(Br)cc1	> 100 µM	> 100	> 100 µM	> 100	> 100 µM	> 100	> 100 µM	–	> 100	> 100	–	–	–	–	–	–	–	–	–	–
CCN(CC)CCC(=O)NC1c2ccc(Cl)cc2Oc2c(C)cccc21 (stereo not given)	34.6 µM	21.5	38.7 µM	33.9	33.3 µM	27.1	–	31.8 µM	29.2	39	–	–	–	–	–	–	–	–	–	–
CCC1(CC)C(=O)OC(=O)C1(CC)CC	> 100 µM	> 100	> 100 µM	> 100	> 100 µM	> 100	–	> 100 µM	–	> 100	–	–	–	–	–	–	–	–	–	–
O=C1c2ccccc2-c2cccc3ccc(Cc4ccc5ccccc5c4)c1c23	> 100 µM	> 100	> 100 µM	> 100	> 100 µM	> 100	> 100 µM	–	> 100	> 100	–	–	–	–	–	–	–	–	–	–
CC(=O)OCC1OC(N2C(=O)C(=O)c3cc(C)ccc32)C(OC(C)=O)C(OC(C)=O)C1OC(C)=O (stereo not given)	> 100 µM	> 100	> 100 µM	> 100	> 100 µM	> 100	> 100 µM	> 100 µM	> 100	–	–	–	–	–	–	–	–	–	–	–
COc1ccc(-c2onc(-c3ccc([N+](=O)[O-])cc3)c2C2=NCCN2)cc1	> 100 µM	> 100	> 100 µM	> 100	> 100 µM	> 100	> 100 µM	–	> 100	> 100	–	–	–	–	–	–	–	–	–	–
COc1cc2c(cc1OCCCOc1cc3c(cc1OC)C(=O)N1C[C@H](F)C[C@H]1C=N3)N=C[C@@H]1C[C@@H](F)CN1C2=O	23.6 µM	26	4.3 µM	18.1	28.5 µM	27.7	18.1 µM	32.9 µM	25.9	–	10.3 µM	13.2	13.6 µM	5.36	–	4.28	17.9	13.2	1.33	14
CC(C)(C#N)c1cc(Cn2cncn2)cc(C(C)(C)C#N)c1	> 10000 µM	> 10000	–	> 10000	> 10000 µM	> 10000	–	> 10000 µM	> 10000	> 10000	> 10000 µM	720	933 µM	299	> 10000	–	> 10000	> 10000	–	> 10000
